Measurements reported in PubChem BioAssay AID1259407 (Chemical Carcinogenesis Research Information System (CCRIS), 2018).
Activity calls are given as the source filed them. The rule behind the calls is not given here.

Test system: CCRIS mutagenicity, Ames/micronucleus/aberration tests
Experiment: CCRIS mutagenicity studies
[1] = Test System: AMES SALMONELLA TYPHIMURIUM, Strain/Indicator: TA100, Metabolic Activation: NONE, Method: STANDARD PLATE
[2] = Test System: AMES SALMONELLA TYPHIMURIUM, Strain/Indicator: TA98, Metabolic Activation: NONE, Method: STANDARD PLATE

CCOC(=O)[C@H](CCc1ccccc1)N[C@@H](C)C(=O)N(CC(=O)O)C1Cc2ccccc2C1
mutagenic call (Test System: AMES SALMONELLA TYPHIMURIUM, Strain/Indicator: TA98, Metabolic Activation: NONE): inactive; negative
mutagenic call (Test System: AMES SALMONELLA TYPHIMURIUM, Strain/Indicator: TA98, Metabolic Activation: S-9): inactive; negative
mutagenic call (Test System: AMES SALMONELLA TYPHIMURIUM, Strain/Indicator: TA100, Metabolic Activation: NONE): inactive; negative
mutagenic call (Test System: AMES SALMONELLA TYPHIMURIUM, Strain/Indicator: TA100, Metabolic Activation: S-9): inactive; negative
mutagenic call (Test System: AMES SALMONELLA TYPHIMURIUM, Strain/Indicator: TA1535, Metabolic Activation: NONE): inactive; negative
mutagenic call (Test System: AMES SALMONELLA TYPHIMURIUM, Strain/Indicator: TA1535, Metabolic Activation: S-9): inactive; negative
mutagenic call (Test System: AMES SALMONELLA TYPHIMURIUM, Strain/Indicator: TA1537, Metabolic Activation: NONE): inactive; negative
mutagenic call (Test System: AMES SALMONELLA TYPHIMURIUM, Strain/Indicator: TA1537, Metabolic Activation: S-9): inactive; negative
mutagenic call (Test System: E. COLI, Strain/Indicator: WP2 UVRA, Metabolic Activation: NONE): inactive; negative
mutagenic call (Test System: E. COLI, Strain/Indicator: WP2 UVRA, Metabolic Activation: S-9): inactive; negative

C=C(Br)C(C)=O
mutagenic call [1]: active; positive

ClC=C(Cl)Cl
mutagenic call (End Point: IN VITRO CHROMOSOMAL ABERRATIONS, Test System: CHINESE HAMSTER LUNG FIBROBLAST CELLS (CHL/IU), Metabolic Activation: NONE): inactive; negative
mutagenic call (End Point: IN VITRO CHROMOSOMAL ABERRATIONS, Test System: CHINESE HAMSTER LUNG FIBROBLAST CELLS (CHL/IU), Metabolic Activation: RAT, LIVER, S-9, PHENOBARBITAL AND 5,6-BENZOFLAVONE): inactive; negative
mutagenic call (End Point: IN VITRO CHROMOSOMAL ABERRATIONS, Test System: CHINESE HAMSTER OVARY CELLS, Metabolic Activation: NONE): inactive; negative; precipitation occurred at all doses
mutagenic call (End Point: IN VITRO CHROMOSOMAL ABERRATIONS, Test System: CHINESE HAMSTER OVARY CELLS, Metabolic Activation: RAT, LIVER, S-9, AROCLOR 1254): inactive; negative; precipitation occurred at all doses
mutagenic call (End Point: IN VITRO MICRONUCLEUS, Test System: V79 CELLS, Metabolic Activation: NONE): inactive; negative
mutagenic call (End Point: IN VITRO MICRONUCLEUS, Test System: V79 CELLS, Metabolic Activation: RAT, LIVER, S-9, AROCLOR 1254): inactive; negative
mutagenic call (Test System: AMES SALMONELLA TYPHIMURIUM, Strain/Indicator: TA97, Metabolic Activation: NONE, Method: STANDARD PLATE): active; positive
mutagenic call (Test System: AMES SALMONELLA TYPHIMURIUM, Strain/Indicator: TA97, Metabolic Activation: RAT, LIVER, S-9, AROCLOR 1254, Method: STANDARD PLATE): active; positive
mutagenic call (Test System: AMES SALMONELLA TYPHIMURIUM, Strain/Indicator: TA98, Metabolic Activation: HAMSTER, LIVER, S-9, AROCLOR 1254, Method: DESICCATOR): inactive; negative
mutagenic call (Test System: AMES SALMONELLA TYPHIMURIUM, Strain/Indicator: TA98, Metabolic Activation: HAMSTER, LIVER, S-9, AROCLOR 1254, Method: PREINCUBATION): inactive; negative
mutagenic call (Test System: AMES SALMONELLA TYPHIMURIUM, Strain/Indicator: TA98, Metabolic Activation: NONE, Method: DESICCATOR): inactive; negative
mutagenic call (Test System: AMES SALMONELLA TYPHIMURIUM, Strain/Indicator: TA98, Metabolic Activation: NONE, Method: PREINCUBATION): inactive; negative
mutagenic call [2]: inactive; negative
mutagenic call (Test System: AMES SALMONELLA TYPHIMURIUM, Strain/Indicator: TA98, Metabolic Activation: RAT, LIVER, S-9, AROCLOR 1254, Method: DESICCATOR): inactive; negative
mutagenic call (Test System: AMES SALMONELLA TYPHIMURIUM, Strain/Indicator: TA98, Metabolic Activation: RAT, LIVER, S-9, AROCLOR 1254, Method: PREINCUBATION): inactive; negative
mutagenic call (Test System: AMES SALMONELLA TYPHIMURIUM, Strain/Indicator: TA98, Metabolic Activation: RAT, LIVER, S-9, AROCLOR 1254, Method: STANDARD PLATE): active; positive
mutagenic call (Test System: AMES SALMONELLA TYPHIMURIUM, Strain/Indicator: TA100, Metabolic Activation: HAMSTER, LIVER, S-9, AROCLOR 1254, Method: DESICCATOR): inactive; negative
mutagenic call (Test System: AMES SALMONELLA TYPHIMURIUM, Strain/Indicator: TA100, Metabolic Activation: HAMSTER, LIVER, S-9, AROCLOR 1254, Method: PREINCUBATION): inactive; negative
mutagenic call (Test System: AMES SALMONELLA TYPHIMURIUM, Strain/Indicator: TA100, Metabolic Activation: MOUSE, LIVER, S-9, AROCLOR 1254, Method: DESICCATOR): active; positive
mutagenic call (Test System: AMES SALMONELLA TYPHIMURIUM, Strain/Indicator: TA100, Metabolic Activation: NONE, Method: DESICCATOR): inactive; negative
mutagenic call (Test System: AMES SALMONELLA TYPHIMURIUM, Strain/Indicator: TA100, Metabolic Activation: NONE, Method: PREINCUBATION): inactive; negative
mutagenic call [1]: inactive; negative
mutagenic call (Test System: AMES SALMONELLA TYPHIMURIUM, Strain/Indicator: TA100, Metabolic Activation: NONE, Method: VAPOR CHAMBER): inactive; negative
mutagenic call (Test System: AMES SALMONELLA TYPHIMURIUM, Strain/Indicator: TA100, Metabolic Activation: RAT, LIVER, S-9, AROCLOR 1254, Method: DESICCATOR): inactive; negative
mutagenic call (Test System: AMES SALMONELLA TYPHIMURIUM, Strain/Indicator: TA100, Metabolic Activation: RAT, LIVER, S-9, AROCLOR 1254, Method: PREINCUBATION): inactive; negative
mutagenic call (Test System: AMES SALMONELLA TYPHIMURIUM, Strain/Indicator: TA100, Metabolic Activation: RAT, LIVER, S-9, AROCLOR 1254, Method: STANDARD PLATE): inactive; negative
mutagenic call (Test System: AMES SALMONELLA TYPHIMURIUM, Strain/Indicator: TA102, Metabolic Activation: S-9, Method: STANDARD PLATE): inactive; negative
mutagenic call (Test System: AMES SALMONELLA TYPHIMURIUM, Strain/Indicator: TA104, Metabolic Activation: NONE, Method: STANDARD PLATE): inactive; negative
mutagenic call (Test System: AMES SALMONELLA TYPHIMURIUM, Strain/Indicator: TA104, Metabolic Activation: RAT, LIVER, S-9, AROCLOR 1254, Method: STANDARD PLATE): inactive; negative
mutagenic call (Test System: AMES SALMONELLA TYPHIMURIUM, Strain/Indicator: TA1535, Metabolic Activation: HAMSTER, LIVER, S-9, AROCLOR 1254, Method: PREINCUBATION): inactive; negative
mutagenic call (Test System: AMES SALMONELLA TYPHIMURIUM, Strain/Indicator: TA1535, Metabolic Activation: NONE, Method: DESICCATOR): active; positive
mutagenic call (Test System: AMES SALMONELLA TYPHIMURIUM, Strain/Indicator: TA1535, Metabolic Activation: NONE, Method: PREINCUBATION): inactive; negative
mutagenic call (Test System: AMES SALMONELLA TYPHIMURIUM, Strain/Indicator: TA1535, Metabolic Activation: NONE, Method: VAPOR CHAMBER): inactive; negative
mutagenic call (Test System: AMES SALMONELLA TYPHIMURIUM, Strain/Indicator: TA1535, Metabolic Activation: RAT, LIVER, S-9, AROCLOR 1254, Method: DESICCATOR): active; positive
mutagenic call (Test System: AMES SALMONELLA TYPHIMURIUM, Strain/Indicator: TA1535, Metabolic Activation: RAT, LIVER, S-9, AROCLOR 1254, Method: PREINCUBATION): inactive; negative
mutagenic call (Test System: AMES SALMONELLA TYPHIMURIUM, Strain/Indicator: TA1537, Metabolic Activation: HAMSTER, LIVER, S-9, AROCLOR 1254, Method: PREINCUBATION): inactive; negative
mutagenic call (Test System: AMES SALMONELLA TYPHIMURIUM, Strain/Indicator: TA1537, Metabolic Activation: NONE, Method: PREINCUBATION): inactive; negative
mutagenic call (Test System: AMES SALMONELLA TYPHIMURIUM, Strain/Indicator: TA1537, Metabolic Activation: RAT, LIVER, S-9, AROCLOR 1254, Method: PREINCUBATION): inactive; negative
mutagenic call (Test System: AMES SALMONELLA TYPHIMURIUM, Strain/Indicator: TA2638, Metabolic Activation: S-9, Method: STANDARD PLATE): inactive; negative
mutagenic call (Test System: E. COLI, Strain/Indicator: WP2 (PKM101), Metabolic Activation: S-9, Method: STANDARD PLATE): inactive; negative
mutagenic call (Test System: E. COLI, Strain/Indicator: WP2 UVRA (PKM101), Metabolic Activation: S-9, Method: STANDARD PLATE): inactive; negative
mutagenic call (Test System: MOUSE LYMPHOMA, Strain/Indicator: L5178Y (TK+/TK-), Metabolic Activation: NONE, Method: SUSPENSION/PLATE): inactive; negative
mutagenic call (Test System: MOUSE LYMPHOMA, Strain/Indicator: L5178Y (TK+/TK-), Metabolic Activation: RAT, LIVER, S-9, AROCLOR 1254, Method: SUSPENSION/PLATE): active; positive

O=[N+]([O-])c1ccc(-c2nc(NCCO)c3ccccc3n2)s1
mutagenic call [2]: active; positive
mutagenic call [1]: active; positive

O=C1OCC(C(Br)Br)=C1Br
mutagenic call [1]: active; positive
